Patent US9734283B2, “Genomic features associated with epigenetic control regions and transgenerational inheritance of epimutations” (priority 2011, dated 2017)

Tested on: testicular spermatogenic cells
Assay: Testicular spermatogenic cell apoptosis (TUNEL assay), F1-F3 lineage after F0 gestational exposure
Type: in vivo, mouse
Experimental: The experimental design involved exposing gestating female inbred 129 strain and outbred CD-1 strain mice to daily intraperitoneal (IP) injections of vehicle (DMSO) (control) or vinclozolin at two doses, 100 mg/kg/day (V1) or 200 mg/kg/day (V2), between embryonic day 7-13 of gestation. In addition, a comparison was used with flutamide IP injections at a 20/mg/kg/day dose. The F1 generation males and females from different litters were bred to generate the F2 generation animals and F2 generation males and females from different litters were bred to generate the F3 generation animals, see Methods below. No sibling or cousin breedings occurred to avoid any inbreeding artifacts. Selected F1, F2 and F3 generation animals from postnatal 90 (P90) or 300 (P300) days of age were analyzed for testis, sperm and other pathologies as previously described.^11, 20, 21
Timed pregnant inbred 129 mice were given intraperitoneal injections with vinclozolin (100 mg/kg·day, 99% pure; ChemService, West Chester, Pa.), flutamide (20 mg/kg·day, Sigma, St. Louis, Mo.) or DMSO in sesame oil (vehicle) as controls, while timed pregnant outbred CD-1 mice were given intraperitoneal injections (IP) with vinclozolin doses: 100 mg/kg·day (V1) or 200 mg/kg·day (V2) or DMSO in sesame oil as controls.^21 Mice were given injections from embryonic day (E) E7-E13, with plug date equal to day 0. Controls were injected with vehicle (DMSO) dose and were matched with vinclozolin or flutamide treatment animals within the same mouse strain at the time of injection and were analyzed together throughout all three generations. […] Male mice were collected and analyzed between P60-P90 (P90) for all generations and treatment groups. […]

SMILES: C=CC1(C)OC(=O)N(c2cc(Cl)cc(Cl)c2)C1=O (racemic) [vinclozolin, (RS)-3-(3,5-dichlorophenyl)-5-methyl-5-vinyl-1,3-oxazolidine-2,4-dione]
- mean number of apoptotic germ cells within the testes (129 inbred strain, vinclozolin 100 mg/kg/day IP to F0 E7-E13, F1, F2, F3 at P90, F1 and F2 at P300, vs control): increased
- testicular apoptotic germ cells (CD-1 outbred strain, V1 100 mg/kg/day IP to F0 E7-E13, F1 and F3 P90, F1, F2, F3 P300): significant increases
